Where two headings read alike, the source gives them in different places.
Test system: cat flea (Ctenocephalides felis)
Assay: whole plant or invertebrate
Assay type: in vivo
Conditions: for mortality at 1.26 µg/cm2, 1.26 µg/cm2 / mortality at 1.26 µg/cm2: Ctenocephalides felis
Procedure: b) Ctenocephalides felis Adulticide Assay: C. felis Single Dose Screen
Mortality of fleas was the primary endpoint in the assay. Fleas were considered dead if they didn't move or were on their sides and unable to walk or right themselves. […] The concentration chosen (1.26 μg/cm^2) was higher than that known to kill 90% of cat fleas (LC90) using the reference compound, permethrin.
The test species was the cat flea (Ctenocephalides felis). The strain used was obtained from external suppliers as pupae and held in the laboratory under testing conditions until the adults had emerged. Fifteen (15) fleas were used in a minimum of four replicates against a single concentration level (approximately 60 fleas). The insects were selected to be in the adult life stage, aged between 3 and 7 days post emergence.
The compounds to be tested were supplied as solids and were prepared in acetone as described below prior to testing. Samples were stored in a refrigerator (5±1° C.) unless otherwise specified.
During the mortality testing, the temperature was maintained at 25±1° C. Humidity was maintained at 75±5%. The base (area=159 mm^2) of a 100 mL glass Erlenmeyer (conical) flask provided the treatment surface. Flasks were pretreated with Coatasil™ glass treatment to maximise bio-availability of test compounds by preventing them from binding to glass the surface. The base of the 100 mL Erlenmeyer flask was treated with 0.5 mL of test sample in acetone and gently swirled. This volume was sufficient to cover the base of the flask. Flasks were left to dry for 24 hours before flea exposure.
Adult cat fleas were placed into a sorting chamber, which allowed fleas to jump into the Erlenmeyer flasks. Fifteen (15) adult cat fleas were collected in each flask. The top of the flasks were then covered in Parafilm™ and small holes were made to allow gas exchange. A 0.5 mL volume of acetone as a solvent control was applied to the base of an Erlenmeyer flask and the testing proceeded in the same manner described above. Cat fleas in the treatment containers were held under testing conditions for 8, 24 and/or 48 hours. Mortality was recorded at 8, 24, 8 and 24, or 24 and 48 hours. Pooled 8, 24, 8 and 24, and 24 and 48 hour mortality data were converted to percentages and are summarized by Tables 14, 14A and 14B, below.

[1] = 24 h, read-out: C. felis Mortality (%) 24 h, 24 h, Laboratory 1 A data
[2] = 24 h, read-out: Ctenocephalides felis Mortality (%) 24 h
[3] = 48 h, read-out: Ctenocephalides felis Mortality (%) 48 h
[4] = 24 h, read-out: C. felis Mortality (%) 24 h, 24 h, Laboratory 2 B data
[5] = 48 h, read-out: C. felis Mortality (%) 48 h, 48 h, Laboratory 2 B data

| Structure (SMILES) | mortality at 1.26 µg/cm2, 1.26 µg/cm2 [1] [%] | other results |
| --- | --- | --- |
| CC/C(=N\Oc1ccc(C)cc1)c1cc(Cl)ccc1NS(=O)(=O)C(F)(F)F [Compound 142] | 72 | – |
| CSCO/N=C(\C)c1cccc(C)c1NS(=O)(=O)C(F)(F)F [Compound 54] | 93 | – |
| C/C(=N\Oc1ccc(F)cc1)c1cc(Cl)ccc1N(C)S(=O)(=O)C(F)(F)F [Compound 298] | – | mortality at 1.26 µg/cm2 [2]: 1%; mortality at 1.26 µg/cm2 [3]: 12% |
| CC/C(=N\Oc1ccc(F)c(Cl)c1)c1cc(Cl)ccc1NS(=O)(=O)C(F)(F)F [Compound 146] | 11 | – |
| CC(C)O/N=C(\c1ccccc1)c1cc(Cl)ccc1NS(=O)(=O)C(F)(F)F [Compound 176] | 52 | – |
| CCC/C(=N\Oc1ccc(F)cc1)c1cc(Cl)ccc1NS(=O)(=O)C(F)(F)F [Compound 168] | 36 | – |
| C/C(=N\OC1CCCC1)c1ccc(C(F)(F)F)cc1NS(=O)(=O)C(F)(F)F [Compound 239] | – | mortality at 1.26 µg/cm2, 1.26 µg/cm2 [4]: 86%; mortality at 1.26 µg/cm2, 1.26 µg/cm2 [5]: 100% |
| CC(C)(C)/C(=N\Oc1ccc(Cl)cc1)c1cc(Cl)ccc1NS(=O)(=O)C(F)(F)F [Compound 182, N-{4-chloro-2-[1-(4-chlorophenoxyimino)2,2-dimethylpropyl]phenyl}trifluoromethanesulfonamide] | 28 | – |
| CC/C(=N\OCc1ccc(Cl)cc1)c1cc(Cl)ccc1N(C)S(=O)(=O)C(F)(F)F [Compound 297] | – | mortality at 1.26 µg/cm2 [2]: 1%; mortality at 1.26 µg/cm2 [3]: 28% |
| C/C(=N\OCC#N)c1ccccc1NS(=O)(=O)C(F)(F)F [Compound 27] | 95 | – |
| CSCO/N=C(\C)c1ccccc1NS(=O)(=O)C(F)(F)F [Compound 56] | 100 | – |
| O=S(=O)(Nc1ccc(Cl)cc1/C(=N/Oc1ccc(F)cc1)c1ccccc1)C(F)(F)F [Compound 165, N-{4-chloro-2-[(4-fluorophenoxyimino)phenylmethyl]phenyl}trifluoromethanesulfonamide] | 21 | – |
| C/C(=N\OCC1CCCCC1)c1cc(Cl)ccc1NS(=O)(=O)C(F)(F)F [Compound 173] | 96 | – |
| C/C(=N\OCc1ccccn1)c1cc(Cl)ccc1NS(=O)(=O)C(F)(F)F [Compound 48] | 94 | – |
| CO/N=C(\c1ccccc1)c1cc(Cl)ccc1NS(=O)(=O)C(F)(F)F [Compound 232] | – | C. felis Mortality (%) 24 h (24 h, Laboratory 2 B data): 96^B %; mortality at 1.26 µg/cm2, 1.26 µg/cm2 [5]: 100% |
| CCOCN(c1ccc(Cl)cc1/C(CC)=N/OCC1CCCCC1)S(=O)(=O)C(F)(F)F [Compound 301] | – | mortality at 1.26 µg/cm2 [2]: 1%; mortality at 1.26 µg/cm2 [3]: 19% |
| CCCC(=O)OCN(c1ccc(Cl)cc1/C(CC)=N/Oc1ccc(Cl)cc1)S(=O)(=O)C(F)(F)F [Compound 309] | – | mortality at 1.26 µg/cm2 (8 h, read-out: Ctenocephalides felis Mortality (%) 8 h): 3%; mortality at 1.26 µg/cm2 [2]: 86% |
| C/C(=N\Oc1ccc(F)c(F)c1)c1cc(Cl)ccc1NS(=O)(=O)C(F)(F)F [Compound 147] | 4 | – |
| O=S(=O)(Nc1ccc(Cl)cc1/C(=N/Oc1ccc(Cl)cc1)C1CCCCC1)C(F)(F)F [Compound 167] | 3 | – |
| CO/N=C(\C)c1cc(Cl)ccc1NS(=O)(=O)C(F)(F)F [Compound 35] | 100 | – |
| CC/C(=N\OC(C)c1ccc(Cl)cc1Cl)c1cc(Cl)ccc1NS(=O)(=O)C(F)(F)F (centres unmarked) [Compound 259] | – | mortality at 1.26 µg/cm2, 1.26 µg/cm2 (8 h, read-out: C. felis Mortality (%) 8 h, 8 h, Laboratory 2 B data): 0%; mortality at 1.26 µg/cm2, 1.26 µg/cm2 [4]: 71% |
| CCO/N=C(\c1ccccc1)c1ccccc1NS(=O)(=O)C(F)(F)F [Compound 31] | 74 | – |
| CO/N=C(\C)c1cc(Br)ccc1NS(=O)(=O)C(F)(F)F [Compound 52] | 100 | – |
| CCO/N=C(\C)c1cccc(OC)c1NS(=O)(=O)C(F)(F)F [Compound 41] | 45 | – |
| CCC/C(=N\Oc1ccc(Cl)cc1)c1cc(Cl)ccc1NS(=O)(=O)C(F)(F)F [Compound 166, N-{4-chloro-2-[1-(4-chlorophenoxyimino)butyl]phenyl}trifluoromethanesulfonamide] | 17 | – |

Reference: patent US7312248B2, “Control of parasites in animals by the use of novel trifluoromethanesulfonanilide oxime ether derivatives” (Schering-Plough Animal Health Corporation, priority 2004, dated 2007)
